Structure (SMILES) | melting point
COc1cc(COc2ncccc2C#N)ccc1OCc1nc(-c2ccco2)oc1C | 137 to 138 °C
Nc1n[nH]c2cc(CN3CCN(S(=O)(=O)c4cc5ccc(Cl)cc5s4)CC3=O)ccc12 | 274 to 276 °C
COc1cc2c(cc1F)CCN(Nc1ccncc1)C2 | 216 to 218 °C
CCC(=O)Nc1cccc2c1C(=O)c1c-2n[nH]c1-c1ccc(OC)cc1 | 287 °C
CC(C)NCC(O)COc1cccc(Cl)c1Cl (stereo unspecified) | 94 to 96 °C
CCCCCS(=O)(=O)NC(=O)/C=C/c1cc(OCCCC)nn1Cc1ccc(C(F)(F)F)cc1Cl | 130 to 132 °C
COC(=O)c1ccccc1S(=O)(=O)NC(=O)Nc1ncc(Cl)cn1 | 217 to 221 °C
S=C1Nc2ccccc2Cn2nnnc21 | 275 to 277 °C
O=C(O)c1ccc(CO/N=C/c2cc3ccccc3n2Cc2ccccc2)cc1Br | 148 to 149 °C
C=CS(=O)(=O)NCCCc1ccc(C2=NNC(=O)CC2)cc1 | 133 to 135 °C
Cc1cc(C2=CO[C@@](c3cc(Cl)cc(Cl)c3)(C(F)(F)F)C2)ccc1C(=O)NC1CS(=O)(=O)C1 | 90 to 105 °C
NC(=O)CN(CCCCCCNc1nsc2nccn12)S(=O)(=O)c1cccc2ccccc12 | 141 to 144 °C
CCc1c(C(=O)OC(C)C)ncc2[nH]c3ccc4nc(C)cnc4c3c12 | 236 to 238 °C
CN(C(=O)C1c2ccccc2COc2ccc(Br)cc21)c1ccccc1 (stereo unspecified) | 148 °C
CN[C@H]1CCN(c2c(-c3csc(C)n3)c(C)c(C#N)c3nc(C(=O)N(C)C)oc23)C1 | 138 to 140 °C
CCC12CCC3C4CCC(=O)C=C4CCC3C1CCC2OC(=O)CC(C)C (stereo unspecified) | 82 to 89 °C
CC(=O)C1CCC2C3CCC4CC(O)C(N5CCOC(c6ccccc6)(c6ccccc6)C5)CC4(C)C3C(=O)CC12C (stereo unspecified) | 248 to 250 °C
COc1cccc(NC(=O)C2=C(O)c3ccc4ccccc4c3S(=O)(=O)N2C)c1 | 242 to 244 °C
Cc1cc(-c2cc(Br)n(C)n2)c(C)[nH]1 | 66 to 69 °C
O=C(Nc1ccc2ccc(Cl)nc2n1)c1ccc2ccccc2n1 | 260 °C
COc1cc2nc(SC)c(C#N)c(C)c2cc1OCc1ccccc1 | 171 to 174 °C
O=[N+]([O-])c1ccccc1Nc1ccc(-c2ccc(Nc3ccccc3[N+](=O)[O-])cc2)cc1 | 211 to 222 °C
S=C=NCc1ccc(Cl)nc1 | 22 °C
CCCCc1nn2cc(C)nc2n1Cc1ccc(-c2ccccc2-c2nnn[nH]2)cc1 | 124 to 125 °C
Cn1cc(C(=O)NCc2ccc(Cl)cc2)c(=O)c2cc(CCl)ccc21 | 241 to 242 °C
O=C(O)Cc1ccc(-c2ccccc2F)c(F)c1 | 126 to 127 °C
O=C(Nc1ccc(CCc2ccc(O)c(O)c2)cc1)C(=O)c1sc2ccccc2c1O | 193 to 195 °C
Oc1nc2ccc3c(Br)cccc3c2nc1O | > 300 °C

Structure (SMILES) | melting point
O=C(O)CCC(CC1(C(=O)NC2CCC(C(=O)OCc3ccccc3)CC2)CCCC1)C(=O)OCc1ccccc1 (stereo unspecified) | 103 to 104 °C
CC(C)(NS(=O)(=O)c1ccc(-c2ccccn2)s1)C(=O)NO | 165 to 166 °C
CCCCc1nc(CCC)nn1Cc1ccc(-c2ccccc2-c2nnn[nH]2)cc1 | 170 °C
Nn1cnc2c(Br)csc2c1=O | 181 to 183 °C
Cc1cccc([N+](=O)[O-])c1C#N | 101 to 103 °C
CCC(C(=O)OC1C=CC=CO1)C(=O)OC1C=CC=CO1 (stereo unspecified) | 90 to 92 °C
O=C(NCc1ccc(F)c(F)c1)c1ccnc(N2CCN(Cc3cccnc3)C2=O)c1 | 178 to 180 °C
N#CC1CCN(c2ccc3c(NC(=O)CC4CCCCC4)c(Cl)ccc3n2)CC1 | 235 to 237 °C
CC(C)NC(=O)Nc1ccc2c(c1)C(c1ccccc1F)=NCC(=O)N2C | 185 to 188 °C
O=[N+]([O-])c1ccc2c(c1)C[C@H]1CSC(=S)N1C2 | 220 °C
O=S(Cc1nnc(-c2ccc3c(c2)CCO3)o1)c1cccc(F)c1 (stereo unspecified) | 131 to 132 °C
CC(C#N)(COc1cc(C#N)ccc1C(F)(F)F)NC(=O)c1ccc(OC(F)(F)F)cc1 (stereo unspecified) | 75 to 78 °C
CCOC(=O)c1cc(S)cc(S)c1 | 49 to 51 °C
O=C(Nc1cccc(F)c1)Nc1ccnc(C(F)(F)F)c1 | 165 to 167 °C
O=C(N[C@H](Cc1ccc(C(F)(F)F)cc1)[C@@H](O)c1ccccc1)c1ccc(F)c2ccccc12 (racemic) | 217 to 218 °C
CC1(C)N=C(c2ccccc2F)c2cc(N)ccc2NC1=O | 203 °C
CC(C)c1nc2ccccc2c(-c2ccc(F)cc2)c1CO | 132 to 134 °C
CCN(Cc1ccccc1)c1ccc(C2OC(=O)c3cc(N(C)C)ccc32)cc1 (stereo unspecified) | 123 to 125 °C
CCOC(=O)C1(N2C(=O)c3cccc(F)c3C2=O)CC1 | 164 °C
CC1(C)c2cc(OS(C)(=O)=O)ccc2OC1O (stereo unspecified) | 69 to 72 °C
CC(=O)N1CCC(c2ccc3c(c2OCc2ccccc2)CCCC3)CC1 | 108 to 110 °C
COC(=O)c1ccc(NC(=O)OCC2c3ccccc3-c3ccccc32)cc1O | 156 to 159 °C
COCCCc1cccc(C2(c3ccc(OC(F)F)cc3)N=C(N)N(C)C2=O)c1 (stereo unspecified) | 48 to 50 °C
Oc1ccc(CCc2nc(-c3cccs3)c[nH]2)cc1 | 166 to 167 °C
CCN(CC)CCNC(=O)c1cc(Cl)c(N)cc1OC1OCCO1 | 93 to 95 °C
CNC(=O)c1c(NC(=O)c2cc(C(F)(F)F)nn2-c2ncccc2Cl)c(Br)cc2cn[nH]c12 | > 255 °C
CCCCCNC(=O)N(C)c1cccc(-c2ccc(CCC(=O)O)cc2OCCOCC)c1 | 61 to 62 °C

Second part, the compound after the results:

melting point | Structure (SMILES)
201 to 202 °C | O=C1SCC(O)=C1Cc1ccc(Br)cc1
175 to 178 °C | CN(C)C=C1C[N+]([O-])=C(c2ccccc2F)c2cc(Cl)ccc2C1=O
134 to 136 °C | FC(F)(F)c1cc(Cl)c(-n2cc(C3CC3(Cl)Cl)nn2)c(Cl)c1 (stereo unspecified)
184 to 186 °C | O=c1ccn(CCO)c(C(O)c2ccc(Cl)cc2)c1O (stereo unspecified)
124 to 126 °C | CCCCc1nc2c(N)nc3ccccc3c2n1CCN1C(=O)NC2CSC(CCCCC(N)=O)C21 (stereo unspecified)
136 to 138 °C | CCOC(=O)c1c(OCc2ccc(-c3ccccc3-c3nnn(C(c4ccccc4)(c4ccccc4)c4ccccc4)n3)cc2)cc(C)nc1C
154 to 156 °C | Cc1ccc(Sc2ccc3c(c2)CC[C@H]2N(C)C(=O)CC[C@]32C)cc1
120 to 121 °C | Cc1ncnn1-c1cc(F)ccc1C#N
165 to 166 °C | CCCSc1nc(NC2CC2c2ccccc2)c2nnn(C3CC(C(=O)NC)C(O)C3O)c2n1 (stereo unspecified)
88 °C | O=C/C=C/c1cc2ccccc2s1
177 to 180 °C | CC1Cc2cc3c(cc2C(c2ccc([N+](=O)[O-])cc2)=NN1c1nc(=O)n(C)s1)OCO3 (stereo unspecified)
254 to 256 °C | Nc1nc2ccccc2c2c1nc(N)n2Cc1ccccc1
142 °C | OC(Cc1ccc(Cl)cc1Cl)(Cn1ccnc1)c1ccc(C2CCCCC2)cc1 (stereo unspecified)
127 to 128 °C | O=C(Nc1cccnc1)c1cccc(-c2cccc3oc(Cc4cccc(C(F)(F)F)c4)cc23)c1
99 to 101 °C | COc1cc2c(cc1O)CCN(Cc1cccc(NS(C)(=O)=O)c1)C2
110 to 112 °C | CCCc1cc(=O)oc2cc(OC(=O)C(C)(C)C)cc(OC(=O)C(C)(C)C)c12
124 to 126 °C | CC(C)(C)OC(=O)Nc1ccc(CN2OCC(C)(C)C2=O)c(Cl)c1
144 °C | Cc1cc(Cl)c(O)cc1N
126 to 128 °C | COc1cc2c(cc1OC)CN(C(c1ccccc1)c1ccccc1)C2
231 to 233 °C | Cc1cc(-c2sc(N3CCN(CC4CC4)C3=O)nc2C)n[nH]1
125 to 128 °C | CCOC(=O)N1CCN(C(=O)Oc2ccc([N+](=O)[O-])cc2)CC1
191 to 192 °C | O=C(N[C@H](Cc1ccc(C(F)(F)F)cc1)[C@@H](O)c1ccc(F)cc1)c1cccc2cccc(Br)c12 (racemic)
71.2 °C | CC(C)C(c1cnccc1C(F)(F)F)N(C)C(=O)Cc1ccccc1 (stereo unspecified)

melting point | Structure (SMILES)
154 to 155 °C | Clc1ccc2c(c1)CCc1cccnc1C2=C1CCNCC1
154 to 156 °C | CCC(CC)Nc1cc(C)nc(Oc2c(C)cc(C)cc2C)c1NC(C)=O
31 °C | CCOC(=O)c1cc2cc(OCCCCCBr)ccc2o1
170 to 171 °C | CCCOc1nc2ccccc2c2c1CNC2=O
113 to 115 °C | FN(F)C12CC3CC(CC(C3)C1)C2
165 to 168 °C | CCCOc1ccc2c(c1)[C@@H](c1ccc(OC)cc1OCCO)[C@@H](C(=O)OC)[C@H]2c1ccc2c(c1)OCO2 (racemic)
234 to 236 °C | O=P(O)(O)Cc1ccc2ccccc2c1
270 to 271 °C | CN(c1cccc2cc(-c3nncs3)[nH]c12)S(=O)(=O)c1cccs1
147 to 149 °C | O=c1[nH]nc2c3c(cccc13)N=C(CN1CCCNCC1)N2
169 to 170 °C | OC(CNCCNc1ncnc2nc[nH]c12)COc1ccccc1 (stereo unspecified)
186 to 189 °C | COC(=O)C(Cc1ccccc1)Nc1nnc(N)s1 (stereo unspecified)
112 to 114 °C | CC(=O)NCc1ccc(CN2CCN(c3ccc(F)cc3)CC2)cc1[N+](=O)[O-]
93 to 96 °C | CCOc1ccc(N)nc1C
65 to 67 °C | O=C(CCl)CCc1ccc(Cl)cc1
198 to 200 °C | CCCC1=C(C(=O)OCC)C(c2cccc(C)c2Cl)c2c[nH]nc2N1 (stereo unspecified)
255 °C | Cn1c(=O)c(=O)[nH]c2cc(C(F)(F)F)ccc21
99 to 101 °C | COc1ccc(C=Cc2c(Cl)cncc2Cl)c2c1CC1(CCCC1)O2
165 to 168 °C | O=C1C=C(NNc2ccccc2)CCN1
91.5 to 92.5 °C | COC(=O)c1cc(OC)c(OC)cc1OC
105 to 107 °C | COc1cc(N)c(Cl)cc1C(=O)NCC1CCN(CCCCCOc2ccc(F)cc2)CC1
36.9 to 38.2 °C | CCOC(=O)C(CCCCCCCCCCCCC(C(=O)O)C1CC1)C1CC1 (stereo unspecified)
86 to 91 °C | O=S(c1cc(Cl)c(-n2cccn2)c(Cl)c1)C(F)(F)F (stereo unspecified)
179 to 190 °C | O=C1c2ccccc2-c2ccc(Cl)c3cccc1c23

Source: a melting point compilation (Tetko et al.; mined from patent text by program, amines drawn as free bases though some values may be those of a salt)
